# Molecular target: T1, TLR8 (Homo sapiens, UniProt Q9NR97)
# T1 sequence (Q9NR97 27-1041): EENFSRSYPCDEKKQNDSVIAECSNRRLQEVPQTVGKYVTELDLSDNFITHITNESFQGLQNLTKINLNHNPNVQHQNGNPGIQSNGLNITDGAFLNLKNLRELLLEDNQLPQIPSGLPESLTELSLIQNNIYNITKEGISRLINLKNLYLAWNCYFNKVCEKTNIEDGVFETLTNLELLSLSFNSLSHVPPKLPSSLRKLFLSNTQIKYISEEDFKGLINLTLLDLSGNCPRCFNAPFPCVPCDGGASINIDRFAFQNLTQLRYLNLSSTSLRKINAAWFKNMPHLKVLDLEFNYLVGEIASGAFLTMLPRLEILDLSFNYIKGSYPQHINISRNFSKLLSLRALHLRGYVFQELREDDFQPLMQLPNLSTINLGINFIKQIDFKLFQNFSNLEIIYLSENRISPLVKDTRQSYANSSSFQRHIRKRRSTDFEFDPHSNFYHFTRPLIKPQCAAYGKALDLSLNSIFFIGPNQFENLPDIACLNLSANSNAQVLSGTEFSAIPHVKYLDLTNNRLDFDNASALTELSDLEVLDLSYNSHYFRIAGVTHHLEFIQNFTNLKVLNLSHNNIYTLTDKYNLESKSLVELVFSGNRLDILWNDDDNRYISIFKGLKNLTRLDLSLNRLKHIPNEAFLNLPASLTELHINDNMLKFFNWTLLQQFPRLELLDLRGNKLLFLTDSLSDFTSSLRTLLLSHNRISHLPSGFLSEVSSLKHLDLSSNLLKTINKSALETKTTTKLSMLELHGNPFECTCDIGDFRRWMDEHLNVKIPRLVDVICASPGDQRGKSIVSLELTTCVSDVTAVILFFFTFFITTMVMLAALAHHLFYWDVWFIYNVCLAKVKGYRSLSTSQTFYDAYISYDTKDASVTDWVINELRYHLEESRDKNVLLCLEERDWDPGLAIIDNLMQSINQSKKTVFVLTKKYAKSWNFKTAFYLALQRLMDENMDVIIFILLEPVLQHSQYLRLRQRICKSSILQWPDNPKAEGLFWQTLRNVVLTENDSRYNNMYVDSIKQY
# Assay: huPBMC TLR8 Antagonist IL-6 TR-FRET Assay
# Assay type: cell-based
# Design: Fresh blood was collected from normal human donors; endogenous in cells; host or cells: human PBMCs from fresh donor blood
# Details: human PBMCs stimulated with ssRNA40 1 μg/ml (DOTAP), 14-16 hrs; IL-6 TR-FRET read-out
# Outline: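 Human PBMCs from fresh donor blood (150,000 cells/well) stimulated 14–16 h at 37 °C with DOTAP-complexed ssRNA40 (final 1 μg/ml for TLR8, 10 μg/mL for TLR7) or ODN2216 (final 0.3 μM, TLR9), 0.25% DMSO, ten-point 1/3 compound dilutions. Supernatant IL-6 read by HTRF (TLR8); IFNα by IFNα2b AlphaLISA (TLR7/TLR9).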
row,Structure (SMILES),IC50 [nM]
1,"Cc1cc(N2CCc3c(c(C)nn3CC34CCC(N)(CC3)CC4)C2)c2cnn(C)c2n1 [Compound No. 1, 4-((5-(1,6-dimethyl-1H-pyrazolo[3,4-b]pyridin-4-yl)-3-methyl-4,5,6,7-tetrahydro-1H-pyrazolo[4,3-c]pyridin-1-yl)methyl)bicyclo[2.2.2]octan-1-amine]",236
2,"Cc1cc(N2CCc3c(c(C)nn3CC34CCC(N)(CC3)CC4)C2)c2cn[nH]c2n1 [Compound No. 2, 4-((3-methyl-5-(6-methyl-1H-pyrazolo[3,4-b]pyridin-4-yl)-4,5,6,7-tetrahydro-1H-pyrazolo[4,3-c]pyridin-1-yl)methyl)bicyclo[2.2.2]octan-1-amine]",> 10000
3,"Cc1cc(N2CCc3c(c(C)nn3CC34CCC(N(C)C(=O)OC(C)(C)C)(CC3)CC4)C2)c2cnn(C)c2n1 [Compound No. 49, tert-butyl (4-((5-(1,6-dimethyl-1H-pyrazolo[3,4-b]pyridin-4-yl)-3-methyl-4,5,6,7-tetrahydro-1H-pyrazolo[4,3-c]pyridin-1-yl)methyl)bicyclo[2.2.2]octan-1-yl)(methyl)carbamate]",> 10000
4,"CNC12CCC(Cn3nc(C)c4c3CCN(c3cc(C)nc5c3cnn5C)C4)(CC1)CC2 [Compound No. 50, 4-((5-(1,6-dimethyl-1H-pyrazolo[3,4-b]pyridin-4-yl)-3-methyl-4,5,6,7-tetrahydro-1H-pyrazolo[4,3-c]pyridin-1-yl)methyl)-N-methylbicyclo[2.2.2]octan-1-amine]",308
5,"Cc1cc(N2CCc3c(c(C)nn3CC34CCC(NC(=O)OC5(C)CC5)(CC3)CC4)C2)c2cnn(C)c2n1 [Compound No. 51, 1-methylcyclopropyl (4-((5-(1,6-dimethyl-1H-pyrazolo[3,4-b]pyridin-4-yl)-3-methyl-4,5,6,7-tetrahydro-1H-pyrazolo[4,3-c]pyridin-1-yl)methyl)bicyclo[2.2.2]octan-1-yl)carbamate]",> 10000
6,"COc1ccc(Cn2ncc3c(N4CCc5c(c(C)nn5CC56CCC(N)(CC5)CC6)C4)cc(C)nc32)cc1 [Compound No. 53, 4-((5-(1-(4-methoxybenzyl)-6-methyl-1H-pyrazolo[3,4-b]pyridin-4-yl)-3-methyl-4,5,6,7-tetrahydro-1H-pyrazolo[4,3-c]pyridin-1-yl)methyl)bicyclo[2.2.2]octan-1-amine]",1140
7,"Cc1cc(N2CCc3c(c(C)nn3CC34CCC(N5CCCC5)(CC3)CC4)C2)c2cnn(C)c2n1 [Compound No. 58, 5-(1,6-dimethyl-1H-pyrazolo[3,4-b]pyridin-4-yl)-3-methyl-1-((4-(pyrrolidin-1-yl)bicyclo[2.2.2]octan-1-yl)methyl)-4,5,6,7-tetrahydro-1H-pyrazolo[4,3-c]pyridine]",53
8,"Cc1cc(N2CCc3c(c(C)nn3CC34CCC(N5CCOCC5)(CC3)CC4)C2)c2cnn(C)c2n1 [Compound No. 59, 4-(4-((5-(1,6-dimethyl-1H-pyrazolo[3,4-b]pyridin-4-yl)-3-methyl-4,5,6,7-tetrahydro-1H-pyrazolo[4,3-c]pyridin-1-yl)methyl)bicyclo[2.2.2]octan-1-yl)morpholine]",52
9,"COCCNC12CCC(Cn3nc(C)c4c3CCN(c3cc(C)nc5c3cnn5C)C4)(CC1)CC2 [Compound No. 69, 4-((5-(1,6-dimethyl-1H-pyrazolo[3,4-b]pyridin-4-yl)-3-methyl-4,5,6,7-tetrahydro-1H-pyrazolo[4,3-c]pyridin-1-yl)methyl)-N-(2-methoxyethyl)bicyclo[2.2.2]octan-1-amine]",31
10,"Cc1cc(N2CCc3c(c(C)nn3CC34CCC(N(C)C5COC5)(CC3)CC4)C2)c2cnn(C)c2n1 [Compound No. 77, N-(4-((5-(1,6-dimethyl-1H-pyrazolo[3,4-b]pyridin-4-yl)-3-methyl-4,5,6,7-tetrahydro-1H-pyrazolo[4,3-c]pyridin-1-yl)methyl)bicyclo[2.2.2]octan-1-yl)-N-methyloxetan-3-amine]",316
11,"Cc1nn(CC23CCC(N)(CC2)CC3)c2c1CN(c1ccnc(-c3ccc(C#N)cc3)c1)CC2 [Compound No. 84, 4-(4-(1-((4-aminobicyclo[2.2.2]octan-1-yl)methyl)-3-methyl-6,7-dihydro-1H-pyrazolo[4,3-c]pyridin-5(4H)-yl)pyridin-2-yl)benzonitrile]",831
12,"Cc1cc(N2CCc3c(c(C)nn3CC34CCC(O)(CC3)CC4)C2)c2cnn(C)c2n1 [compound 46, 4-((5-(1,6-dimethyl-1H-pyrazolo[3,4-b]pyridin-4-yl)-3-methyl-4,5,6,7-tetrahydro-1H-pyrazolo[4,3-c]pyridin-1-yl)methyl)bicyclo[2.2.2]octan-1-ol]",> 10000

# Results, then the molecule that gave them:
row,IC50 [nM],Structure (SMILES)
1,> 10000,"Cc1cc(N2CCc3nn(CC45CC(N)(C4)C5)c(C)c3C2)c2cnn(C)c2n1 [compound 52, 3-((5-(1,6-dimethyl-1H-pyrazolo[3,4-b]pyridin-4-yl)-3-methyl-4,5,6,7-tetrahydro-2H-pyrazolo[4,3-c]pyridin-2-yl)methyl)bicyclo[1.1.1]pentan-1-amine]"
2,74,"Cc1cc(N2CCc3c(c(C)nn3CC34CCC(NC5CCC5)(CC3)CC4)C2)c2cnn(C)c2n1 [compound 54, N-cyclobutyl-4-((5-(1,6-dimethyl-1H-pyrazolo[3,4-b]pyridin-4-yl)-3-methyl-4,5,6,7-tetrahydro-1H-pyrazolo[4,3-c]pyridin-1-yl)methyl)bicyclo[2.2.2]octan-1-amine]"
3,420,"Cc1cc(N2CCc3c(c(C)nn3CC34CCC(NC(C)C)(CC3)CC4)C2)c2cnn(C)c2n1 [compound 55, 4-((5-(1,6-dimethyl-1H-pyrazolo[3,4-b]pyridin-4-yl)-3-methyl-4,5,6,7-tetrahydro-1H-pyrazolo[4,3-c]pyridin-1-yl)methyl)-N-isopropylbicyclo[2.2.]octan-1-amine]"
4,292,"Cc1cc(N2CCc3c(c(C)nn3CC34CCC(NC(C)CO)(CC3)CC4)C2)c2cnn(C)c2n1 (stereo not drawn) [compound 56, 2-((4-((5-(1,6-dimethyl-1H-pyrazolo[3,4-b]pyridin-4-yl)-3-methyl-4,5,6,7-tetrahydro-1H-pyrazolo[4,3-c]pyridin-1-yl)methyl)bicyclo[2.2.2]octan-1-yl)amino)propan-1-ol]"
5,110,"CCNC12CCC(Cn3nc(C)c4c3CCN(c3cc(C)nc5c3cnn5C)C4)(CC1)CC2 [compound 57, 4-((5-(1,6-dimethyl-1H-pyrazolo[3,4-b]pyridin-4-yl)-3-methyl-4,5,6,7-tetrahydro-1H-pyrazolo[4,3-c]pyridin-1-yl)methyl)-N-ethylbicyclo[2.2.]octan-1-amine]"
6,115,"Cc1cc(N2CCc3c(c(C)nn3CC34CCC(N5CCC5)(CC3)CC4)C2)c2cnn(C)c2n1 [compound 64, 1-((4-(azetidin-1-yl)bicyclo[2.2.2]octan-1-yl)methyl)-5-(1,6-dimethyl-1H-pyrazolo[3,4-b]pyridin-4-yl)-3-methyl-4,5,6,7-tetrahydro-1H-pyrazolo[4,3-c]pyridine]"
7,14,"CCOCCNC12CCC(Cn3nc(C)c4c3CCN(c3cc(C)nc5c3cnn5C)C4)(CC1)CC2 [compound 71, 4-((5-(1,6-dimethyl-1H-pyrazolo[3,4-b]pyridin-4-yl)-3-methyl-4,5,6,7-tetrahydro-1H-pyrazolo[4,3-c]pyridin-1-yl)methyl)-N-(2-ethoxyethyl)bicyclo[2.2.2]octan-1-amine]"
8,102,"CCOCCN(CCOCC)C12CCC(Cn3nc(C)c4c3CCN(c3cc(C)nc5c3cnn5C)C4)(CC1)CC2 [compound 72, 4-((5-(1,6-dimethyl-1H-pyrazolo[3,4-b]pyridin-4-yl)-3-methyl-4,5,6,7-tetrahydro-1H-pyrazolo[4,3-c]pyridin-1-yl)methyl)-N,N-bis(2-ethoxyethyl)bicyclo[2.2.2]octan-1-amine]"
9,158,"Cc1cc(N2CCc3c(c(C)nn3CC34CCC(N5C[C@@H](O)[C@@H](O)C5)(CC3)CC4)C2)c2cnn(C)c2n1 [compound 74, (3S,4R)-1-(4-((5-(1,6-dimethyl-1H-pyrazolo[3,4-b]pyridin-4-yl)-3-methyl-4,5,6,7-tetrahydro-1H-pyrazolo[4,3-c]pyridin-1-yl)methyl)bicyclo[2.2.2]octan-1-yl)pyrrolidine-3,4-diol]"

# Source: patent US20240376099A1, “COMPOUNDS AND COMPOSITIONS AS INHIBITORS OF ENDOSOMAL TOLL-LIKE RECEPTORS” (Novartis AG, priority 2016, published 2024)
